Measured values published in patent US11786523B2, “Composition and method for reducing thrombocytopenia” (BEYONDSPRING PHARMACEUTICALS, INC., priority 2018, dated 2023).

B1: pegfilgrastim (protein, chains of the INN, looked up)
chain: TPLGPASSLPQSFLLKCLEQVRKIQGDGAALQEKLCATYKLCHPEELVLLGHSLGIPWAPLSSCPSQALQLAGCLSQLHSGLFLYQGLLQALEGISPELGPTLDTLQLDVADFATTIWQQMEELGMAPALQPTQGAMPAFASAFQRRAGGVLVASHLQSFLEVSYRVLRHLAQP
modifications: PEG
notes: granulocyte-colony stimulating factor (G-CSF) drug used as comparator

Legend:
[1] = test system: gemcitabine-induced thrombocytopenia; experiment: Effects of plinabulin on hematology parameters (platelet counts) following gemcitabine administration in the rat; assay type: in vivo
Experimental: The effects of plinabulin on the hematology parameters following changes induced by gemcitabine administration in the rat were evaluated. The vehicle was prepared using 7.11% Tween 80 (v/v): 25.5% Propylene glycol (v/v): 67.4% D5W (v/v). D5W is 5% dextrose in water for injection.
Plinabulin or Pegfilgrastim were first dissolved in the Tween 80-PG mixture and then diluted with D5W. Test item was dissolved in Tween 80-PG mixture on the day before and stored at RF. D5W was added on the day of dosing to complete the formulation.
Animals were randomized based on body weight and/or absolute neutrophil counts and assigned to groups. Before the initiation of dosing, any assigned animals considered unsuitable for use in the study were replaced by alternate animals obtained from the same shipment and maintained under the same environmental conditions. Each animal was uniquely identified using indelible ink. A minimum acclimation period of 5 days was allowed between animal receipt and the start of treatment in order to accustom the animals to the laboratory environment.
For the lab evaluation, the animal blood was collected by jugular venipuncture. Samples (0.3 mL) were collected in EDTA tubes. Additional blood samples may be obtained (e.g., due to clotting of non-serum samples) if permissible sampling frequency and blood volume are not exceeded. After collection, samples were transferred to Clinical Laboratories for hematology analysis using the Advia and results entered into the Provantis® system.
Administration of Inducing Agent
1. Gemcitabine; Groups 1, 3 and 4
Dosing regimen: Single dosing on Day 1
Intravenously (IV bolus) over ˜1 minute at a dose volume of 5 mL/kg.
Group 2 received Vehicle.
2. Pegfilgrastim; Groups 2 and 4
Dosing regimen: Single dosing on Day 2, 24 hours after Gemcitabine
Route of administration: Subcutaneous (SC) injection.
Dose volume: 10 mL/kg, based on the most recent body weight measurement
Dosing regimen: Single dosing on Day 1, 1 hr after Gemcitabine
Route of administration: Intra-peritoneal (IP) injection.
Group 1 received Vehicle.
The dosing time points for groups 1 to 4 include days −3, 1, 2, 3, 4, 5, 6, 7, 8, 9 and 10. Additional blood samples may be obtained (e.g., due to clotting of non-serum samples) if permissible sampling frequency and blood volume are not exceeded. After collection, samples will be transferred to Clinical Laboratories for hematology analysis using the Advia and results entered into the Provantis® system.

[2] = test system: thrombocytopenia in patients receiving docetaxel; experiment: Phase 2/3 randomized study of plinabulin versus pegfilgrastim in patients with solid tumors receiving docetaxel myelosuppressive chemotherapy (platelet count, thrombocytopenia); assay type: in vivo, human; conditions: patients on docetaxel 75 mg/m^2, preliminary; for change of platelet count (percent) from day 1 to day 15: pegfilgrastim 6 mg vs plinabulin 20 mg/m^2, FIG. 2; for development of thrombocytopenia (percentage of patients at each grade): plinabulin 20 mg/m^2 vs pegfilgrastim 6 mg, FIG. 5
Experimental: The effects of plinabulin on the thrombocytopenia is studied in comparison to pegfilgrastim. A phase 2/3, multicenter, randomized, double blind study is performed with plinabulin versus pegfilgrastim in patients with solid tumors receiving docetaxel myelosuppressive chemotherapy is evaluated. The patients are on study for approximately 5 months, including screening, on treatment, and follow-up. Study design: This is a multicenter, randomized study with an open label phase 2 portion and a double blind phase 3 portion. Approximately 190 patients are enrolled in this study. All patients receive docetaxel at a dose of 75 mg/m^2. In Phase 2, only patients with advanced or metastatic NSCLC after failing platinum-based therapy are enrolled. In Phase 3, patients with one of the following diagnosis are enrolled: advanced or metastatic breast cancer, who have failed<5 prior lines of chemotherapy; advanced or metastatic NSCLC who have previously received platinum-based therapy and have either disease progression, are intolerant of platinum-based therapy or, in the opinion of the investigator, would benefit from docetaxel chemotherapy; or hormone refractory (androgen independent) metastatic prostate cancer. The eligibility of all patients will be determined during a 28-day screening period. Phase 2 (Open Label): Approximately 40 patients with advanced or metastatic NSCLC are enrolled. Patients are randomly assigned with approximately 10 patients enrolled in each arm, with the arm designation and planned intervention as follows: Arm 1: Docetaxel (75 mg/m^2)+pegfilgrastim (6 mg) Arm 2: Docetaxel (75 mg/m^2)+plinabulin (20 mg/m^2) Arm 3: Docetaxel (75 mg/m^2)+plinabulin (10 mg/m^2) Arm 4: Docetaxel (75 mg/m^2)+plinabulin (5 mg/m^2) Once the study is temporarily closed to enrollment in phase 2, a PK/PD analysis is performed to determine the RP3D. The PK/PD analysis is done by an independent party at the time 40 patients in Phase 2 have completed at least Cycle 1. Treatments Administered: Both Phase 2 and Phase 3, Cycles 1 to 4, consist of docetaxel 75 mg/m^2 administered by intravenous (IV) infusion on Day 1 over 60 minutes (±5 minutes) every 21 days. In the phase 2 portion, on Day 1 of each cycle, 1.5 hours (±10 minutes) after the start time of docetaxel infusion (i.e., approximately 30 minutes after the end of docetaxel infusion), patients assigned to a plinabulin arm (arms 2-4) get a single intravenous infusion of plinabulin at their assigned dose over 30 minutes (±5 minutes). Thus, the wait time between end of docetaxel infusion and start of the plinabulin infusion is approximately 30 minutes. On Day 2 of each cycle, ≥24 hours after completing chemotherapy, patients assigned to pegfilgrastim (arm 1) receive a single dose of pegfilgrastim (6 mg) (subcutaneous injection). Laboratory test results (hematology and serum chemistry) are collected via a central laboratory. Safety laboratory tests are required prior to treatment on Day 1 of each cycle and can be collected by a local laboratory; however, all other scheduled blood samples as per the schedule assessments and procedure table must also be obtained for central laboratory assessment. Urinalysis is performed at screening only. CD34+ counts are established through a fluorescence-activated cell sorting (FACS) method. Duration of Treatment: Patients received treatment with study drug for up to 4 cycles in this study, a treatment cycle is 21 days; thereafter, patients may continue receiving docetaxel and pegfilgrastim at the Investigator's discretion. After completion of 4 cycles, patients completed a safety follow-up visit 30 days (±2 days) after the last dose of study drug. If, in the opinion of the investigator, the patient would benefit from more than 4 cycles of docetaxel and open label pegfilgrastim, then the fifth cycle would not start until completion of the safety follow-up visit (in this instance, the safety follow-up visit will be Cycle 4 Day 21).

Molecule | platelet counts versus gemcitabine alone group ([1]; Days 8 and 9, gemcitabine and plinabulin group) | effect on thrombocytopenia observed with gemcitabine alone ([1]; gemcitabine 100 mg/kg IV + plinabulin 7.5 mg/kg IP, FIG. 1) | platelet counts ([1]; gemcitabine 100 mg/kg IV Day 1 + plinabulin 7.5 mg/kg IP 1 hr after, all sampling days, FIG. 1) | recovery from gemcitabine-induced thrombocytopenia versus gemcitabine alone ([1]; gemcitabine and plinabulin group) | percentage of patients with greater than 30% platelet decrease from baseline, compared with pegfilgrastim group ([2]; cycles 1-4, plinabulin groups, FIG. 3) | change of platelet count (percent) from day 1 to day 15 [2] | development of thrombocytopenia (percentage of patients at each grade) [2] | incidence of developing thrombocytopenia (percentage of patients at each grade) ([2]; plinabulin 5, 10 and 20 mg/m^2 vs pegfilgrastim 6 mg, FIG. 4) | percentage of patients with greater than 30% platelet decrease from baseline ([2]; cycles 1-4, FIG. 3) [%]
CC(C)(C)c1[nH]cnc1/C=c1\[nH]c(=O)/c(=C/c2ccccc2)[nH]c1=O [plinabulin, Plinabulin] | statistically greater | reduced the thrombocytopenia observed with gemcitabine alone | > 500 ×10^3 cells/μL | more rapid | lower percentages | more effective in maintaining the platelet count | did not develop thrombocytopenia | lower incidences of developing thrombocytopenia than the pegfilgrastim group | –
B1 | – | – | – | – | – | greater than the plinabulin group | some patients in the pegfilgrastim group developed thrombocytopenia | – | ~85
